Laboratory results reported in US20020040011A1, “Naphthoquinone compositions and uses thereof” (priority 2000, published 2002).

System: murine fibrosarcomas (RIF-1 cells)
Assay: Chemopotentiation of cisplatin by menadione: tumor growth delay of RIF-1 fibrosarcomas in C3H mice
Assay type: in vivo
Settings: for Median (TVQT) / TVQT ± S.E. (mean tumor volume quadrupling time) / TVQT/CTVQT (ratio of treated over untreated control): intradermal RIF-1 tumors, female C3H mice; for Median (TVQT) / TVQT ± S.E. (mean tumor volume quadrupling time) / TVQT/CTVQT (ratio of treated over untreated control) / Delay: i.p., menadione 10 mg/kg, cisplatin 4 mg/kg, combination: menadione 30 min before cisplatin; for Delay: median treated minus median control, RIF-1 tumors, C3H mice
Experimental: Transplantable experimental murine fibrosarcomas (2×10^5 RIF-1 cells) were grown intradermally in the flanks of 3 month old female C3H mice (Charles River, Holister, Calif.). When the tumors reached a volume of approximately 100 mm^3, the mice were randomly assigned to each experimental group (4 mice per group). The experimental compositions were prepared as described in Table 1. Menadione was obtained from Sigma Chemical Co. (St. Louis, Mo.) and was made to the appropriate concentration in DMSO. Cisplatin (David Bull Laboratories- Mulgrave, Australia, lot. 5201844x) was made to the appropriate concentration in water for injection. The compositions were injected systemically (i.e., intraperitoneally, i.p.), in a volume of 100 microliters. For the treatment of group 3, menadione was injected 30 minutes prior to the injection of cisplatin. After treatment, the growth of the tumors was monitored three times per week by caliper measurements of three perpendicular diameters of the tumor and calculation of tumor volume from the formula: V=π/6×D1×D2×D3, where D1-3 are the diameters in mm along the three different perpendicular axes. The tumors were followed until they reached a size of four times their day zero treatment volume (TVQT), or up to 30 days after treatment, whichever came first. The data is expressed as the “tumor volume quadrupling time” (TVQT) mean and as the “delay.” Mean TVQT is the mean days required for individual tumors to grow to four times the tumor volume at the initial treatment day. The “delay” is the median of days required for a tumor to grow to four times the mean size of the treated group, minus the median of days required to grow to four times the mean size of the control group. The data is also expressed as the ratio of the tumor volume quadrupling time of the treated tumor over the untreated control group ([…]). Increasing values of this ratio indicate increased antitumor response.

| SMILES | Median (TVQT) [days] | TVQT ± S.E. (mean tumor volume quadrupling time) [days] | TVQT/CTVQT (ratio of treated over untreated control) | Delay [days] | antiproliferative activity of cisplatin when used with the chemopotentiator menadione (group 3 (menadione 10 mg/kg then cisplatin 4 mg/kg) versus either agent alone, more than additive effect) |
| --- | --- | --- | --- | --- | --- |
| CC1=CC(=O)c2ccccc2C1=O [Menadione, 2-Methyl-1,4-Naphthoquinone] | 7.5 | 7.0 ± 0.5 | 1.0 | 0.61 | – |
| N.N.[Cl][Pt][Cl] [Cisplatin, cis-diamminedichloroplatinum II] | 8.3 | 8.4 ± 0.3 | 1.3 | 1.44 | enhanced |
